Assay results reported in patent publication US11439707B2, “Hypocrellin derivative substituted both in a peri-position and in 2-position by amino, preparation method, and application thereof” (priority 2017, dated 2022).

Experiments:
[1] = absorption spectrum (maximum absorption wavelength, molar extinction coefficient); type: physicochemical
[2] = singlet oxygen efficiency test, reference rose bengal; type: physicochemical

Row | SMILES | maximum absorption wavelength [1] | molar extinction coefficient [1] | singlet oxygen yield [2]
1 | COc1c(NCCOC(=O)N2CC(=O)NC(=O)C2)c2c(=O)cc(OC)c3c4c(OC)cc(=O)c5c(O)c(NCCOC(=O)N6CC(=O)NC(=O)C6)c6c(c(c1C(C(C)=O)C(C)=C6)c23)c54 (stereo not drawn) [HB-40b] | 624 nm | 31,500 M^−1cm^−1 | 34%
2 | COc1c(O)c2c(=O)cc(OC)c3c4c(OC)cc(=O)c5c(NC6CCC(O)C6)c(NC6CCC(O)C6)c6c(c(c1C(C(C)=O)C(C)=C6)c23)c54 (stereo not drawn) [HB-20a] | 624 nm | 24,500 M^−1cm^−1 | 20%
3 | COc1c2c3c4c(c(NCC5CCC(C(=O)OCCCC[P+](c6ccccc6)(c6ccccc6)c6ccccc6)CC5)c(=O)c5c(O)cc(OC)c(c6c(OC)cc(NCC7CCC(C(=O)OCCCC[P+](c8ccccc8)(c8ccccc8)c8ccccc8)CC7)c(c1=O)c63)c54)C=C(C)C2 (stereo not drawn) [HC-30d-C4-PPh3^+] | 630 nm | 32,500 M^−1cm^−1 | 31%
4 | COCCOCCOCCOCCOCCOCCOCCN1CCC(CNc2c3c4c5c(c(OC)c(=O)c6c(O)cc(OC)c(c7c(OC)cc(NCC8CCN(CCOCCOCCOCCOCCOCCOCCOC)CC8)c(c2=O)c74)c65)C(C(C)=O)C(C)=C3)CC1 (stereo not drawn) [HB-32c-PEG6] | 632 nm | 33,500 M^−1cm^−1 | 40%
5 | COCCOCCOCCOCCOCCOCCOCCC(=O)OCC1(Nc2c3c4c5c(c(OC)c(=O)c6c(O)cc(OC)c(c7c(OC)cc(NC8(COC(=O)CCOCCOCCOCCOCCOCCOCCOC)CC8)c(c2=O)c74)c65)C(C(C)=O)C(C)=C3)CC1 (stereo not drawn) [HB-35c-PEG6] | 630 nm | 33,500 M^−1cm^−1 | 38%
6 | COc1c(O)c2c(=O)cc(OC)c3c4c(OC)cc(=O)c5c(NCCCCCC(=O)O)c(NCCCCCC(=O)O)c6c(c(c1CC(C)=C6)c23)c54 [HC-9a] | 620 nm | 26,500 M^−1cm^−1 | 26%
7 | COCCOCCOCCOCCOCCOCCOC(=O)CCCNc1c(O)c2c(=O)cc(OC)c3c4c(OC)cc(=O)c5c(NCCCC(=O)OCCOCCOCCOCCOCCOCCOC)c(OC)c6c(c(c1C=C(C)C6C(C)=O)c23)c54 (stereo not drawn) [HB-8b-PEG6] | 622 nm | 30,000 M^−1cm^−1 | 30%
8 | COc1c(NCCCC(=O)O)c2c(=O)cc(OC)c3c4c(OC)cc(=O)c5c(O)c(NCCCC(=O)O)c6c(c(c1CC(C)=C6)c23)c54 [HC-8b] | 622 nm | 28,000 M^−1cm^−1 | 25%
9 | COCCOCCOCCOCCOCCOCCOC(=O)C1CCCCC1Nc1c2c3c4c(c(OC)c(=O)c5c(NC6CCCCC6C(=O)OCCOCCOCCOCCOCCOCCOC)cc(OC)c(c6c(OC)cc(O)c(c1=O)c63)c54)C(C(C)=O)C(C)=C2 (stereo not drawn) [HB-16d-PEG6] | 628 nm | 32,000 M^−1cm^−1 | 33%
10 | COCCOCCOCCOCCOCCOCCOCCC(=O)OCCOCCNc1c(O)c2c(=O)cc(OC)c3c4c(OC)cc(=O)c5c(NCCOCCOC(=O)CCOCCOCCOCCOCCOCCOCCOC)c(OC)c6c(c(c1C=C(C)C6C(C)=O)c23)c54 (stereo not drawn) [HB-1b-PEG6] | 622 nm | 30,000 M^−1cm^−1 | 32%
11 | COc1c2c3c4c(c(NC(CC(=O)O)C(=O)O)c(=O)c5c(NC(CC(=O)O)C(=O)O)cc(OC)c(c6c(OC)cc(O)c(c1=O)c63)c54)C=C(C)C2C(C)=O (stereo not drawn) [HB-27c] | 625 nm | 21,500 M^−1cm^−1 | 21%
12 | COCCOCCOCCOCCOCCOCCOC(=O)CCCNc1c2c3c4c(c(OC)c(=O)c5c(NCCCC(=O)OCCOCCOCCOCCOCCOCCOC)cc(OC)c(c6c(OC)cc(O)c(c1=O)c63)c54)CC(C)=C2 [HC-8d-PEG6] | 624 nm | 31,500 M^−1cm^−1 | 32%
13 | COCCOCCOCCOCCOCCOCCOC(=O)C1CCC(Nc2c(O)c3c(=O)cc(OC)c4c5c(OC)cc(=O)c6c(NC7CCC(C(=O)OCCOCCOCCOCCOCCOCCOC)CC7)c(OC)c7c(c(c2C=C(C)C7C(C)=O)c34)c65)CC1 (stereo not drawn) [HB-14b-PEG6] | 624 nm | 30,500 M^−1cm^−1 | 34%
14 | COCCOCCOCCOCCOCCOCCOCCC(=O)OCCOCCNc1c2c3c4c(c(OC)c(=O)c5c(NCCOCCOC(=O)CCOCCOCCOCCOCCOCCOCCOC)cc(OC)c(c6c(OC)cc(O)c(c1=O)c63)c54)CC(C)=C2 [HC-1d-PEG6] | 622 nm | 34,500 M^−1cm^−1 | 34%
15 | COc1c(O)c2c(=O)cc(OC)c3c4c(OC)cc(=O)c5c(NCC(=O)O)c(NCC(=O)O)c6c(c(c1C(C(C)=O)C(C)=C6)c23)c54 (stereo not drawn) [HB-7a] | 620 nm | 26,500 M^−1cm^−1 | 28%
16 | COc1c2c3c4c(c(NC5CCC(C(=O)O)C5)c(=O)c5c(O)cc(OC)c(c6c(OC)cc(NC7CCC(C(=O)O)C7)c(c1=O)c63)c54)C=C(C)C2C(C)=O (stereo not drawn) [HB-19d] | 625 nm | 24,000 M^−1cm^−1 | 20%
17 | COCCOCCNC(=O)C1CCC(CNc2c(NCC3CCC(C(=O)NCCOCCOC)CC3)c3c(=O)cc(OC)c4c5c(OC)cc(=O)c6c(O)c(OC)c7c(c(c2C=C(C)C7C(C)=O)c34)c65)CC1 (stereo not drawn) [HB-13a-NH-PEG1] | 624 nm | 31,000 M^−1cm^−1 | 32%
18 | COc1c2c3c4c(c(NCC(=O)O)c(=O)c5c(NCC(=O)O)cc(OC)c(c6c(OC)cc(O)c(c1=O)c63)c54)C=C(C)C2 [HC-7c] | 630 nm | 29,500 M^−1cm^−1 | 27%
19 | COc1c2c3c4c(c(NCCCCCC(=O)O)c(=O)c5c(NCCCCCC(=O)O)cc(OC)c(c6c(OC)cc(O)c(c1=O)c63)c54)C=C(C)C2 [HC-9c] | 628 nm | 27,000 M^−1cm^−1 | 29%
20 | COCCOCCC(=O)OCCOCCNc1c(NCCOCCOC(=O)CCOCCOC)c2c(=O)cc(OC)c3c4c(OC)cc(=O)c5c(O)c(OC)c6c(c(c1C=C(C)C6C(C)=O)c23)c54 (stereo not drawn) [HB-1a-PEG1] | 625 nm | 31,000 M^−1cm^−1 | 35%
21 | COCCOC(=O)CCCCCNc1c(NCCCCCC(=O)OCCOC)c2c(=O)cc(OC)c3c4c(OC)cc(=O)c5c(O)c(OC)c6c(c(c1C=C(C)C6)c23)c54 [HC-9a-PEG1] | 621 nm | 30,000 M^−1cm^−1 | 32%
22 | COc1c2c3c4c(c(NC(CC(N)=O)C(=O)O)c(=O)c5c(NC(CC(N)=O)C(=O)O)cc(OC)c(c6c(OC)cc(O)c(c1=O)c63)c54)C=C(C)C2C(C)=O (stereo not drawn) [HB-26c] | 614 nm | 21,500 M^−1cm^−1 | 21%
23 | COc1c(NCCCC(=O)NCCCCS(=O)(=O)O)c2c(=O)cc(OC)c3c4c(OC)cc(=O)c5c(O)c(NCCCC(=O)NCCCCS(=O)(=O)O)c6c(c(c1CC(C)=C6)c23)c54 [HC-8b-NH—C4-SO3H] | 624 nm | 31,500 M^−1cm^−1 | 33%
